Experimental data as given in publication PMC12446476 (Nature Communications, 2025).
Values after ≈ are worked out from the molar mass of the structure shown. Like-named read-outs stand apart in the source and are kept apart here.

What was measured:
S. aureus ATCC 29213 = experiment: S. aureus neutropenic murine thigh infection model; format: in vivo, mouse; conditions: S. aureus ATCC 29213, daily dose, 300 µg/mL ceftriaxone
Protocol: The S. aureus neutropenic murine thigh infection model was performed in accordance with the Guide for Care and Use of Laboratory Animals[75]. Animal rooms were maintained at a temperature range of 20–24 °C and humidity between 30% and 70%, with 12 h light/dark cycles. Female ICR mice (BioLASCO Taiwan Co., Ltd.) were rendered neutropenic via IP injection of cyclophosphamide four days before infection (150 mg/kg) and again one day before infection (100 mg/kg). Animals were anaesthetised with isoflurane (3–5%), then inoculated intramuscularly with S. aureus ATCC 29213 (~1 × 10^5 CFU/mouse). […] Animals were sacrificed via CO2 asphyxiation at either 2 h (baseline), 26 and/or 50 h post-infection. Thigh tissues were harvested and homogenised in 3 mL sterile PBS (pH 7.4). Bacterial burdens were determined by performing 10-fold serial dilutions and plating on nutrient agar plates.

N. gonorrhoeae = experiment: MIC determination, Etest; format: cell-based, Neisseria gonorrhoeae; conditions: Neisseria gonorrhoeae, comparator antibiotics, read-out: Minimum inhibitory concentration
Excerpt: The 2024 WHO N. gonorrhoeae reference strains were used for quality control. Only whole MIC doubling dilutions are reported. Clinical breakpoints or the epidemiological cutoff (ECOFF, to indicate azithromycin resistance) from EUCAST (v14.0, https://www.eucast.org/clinical_breakpoints) were used to classify isolates as antimicrobial susceptible or resistant. […] Two times the standard inoculum defined by CLSI was used to establish consistent growth in untreated control samples for some strains. In vitro time-kill assays were performed according to CLSI guidelines[65] using Columbia Broth (BD Difco) supplemented with 1% IsoVitaleX Enrichment (BD). Viable bacterial counts were generated by plating 10-fold serially diluted samples on GC agar plates containing 1% IsoVitaleX Enrichment (BD).

CO/N=C(\C(=O)N[C@@H]1C(=O)N2C(C(=O)O)=C(CSc3nc(=O)c(=O)[nH]n3C)CS[C@H]12)c1csc(N)n1 [Ceftriaxone, reference compound]
Mean Diff. 0h vs. treatment, log10 CFU (S. aureus ATCC 29213; 24h): 1.71 | Mean Diff. 0h vs. treatment, log10 CFU (S. aureus ATCC 29213; 48h): 2.684 | MIC (N. gonorrhoeae; clinical N. gonorrhoeae isolate 1, Sweden 2023): 4 ng/mL (≈ 7.21 nM) | MIC (N. gonorrhoeae; clinical N. gonorrhoeae isolate 2, Sweden 2023): 32 ng/mL (≈ 57.7 nM) | MIC (N. gonorrhoeae; clinical N. gonorrhoeae isolate 3, Sweden 2023): 4 ng/mL (≈ 7.21 nM) | MIC (N. gonorrhoeae; clinical N. gonorrhoeae isolate 4, Sweden 2023): 32 ng/mL (≈ 57.7 nM) | MIC (N. gonorrhoeae; clinical N. gonorrhoeae isolate 5, Sweden 2023): 4 ng/mL (≈ 7.21 nM) | MIC (N. gonorrhoeae; clinical N. gonorrhoeae isolate 6, Sweden 2023): < 2 ng/mL | MIC (N. gonorrhoeae; clinical N. gonorrhoeae isolate 7, Sweden 2023): 8 ng/mL (≈ 14.4 nM) | MIC (N. gonorrhoeae; clinical N. gonorrhoeae isolate 8, Sweden 2023): 4 ng/mL (≈ 7.21 nM) | MIC (N. gonorrhoeae; clinical N. gonorrhoeae isolate 9, Sweden 2023): 4 ng/mL (≈ 7.21 nM) | MIC (N. gonorrhoeae; clinical N. gonorrhoeae isolate 10, Sweden 2023): < 2 ng/mL | MIC (N. gonorrhoeae; clinical N. gonorrhoeae isolate 11, Sweden 2023): 64 ng/mL (≈ 115 nM) | MIC (N. gonorrhoeae; clinical N. gonorrhoeae isolate 12, Sweden 2023): 8 ng/mL (≈ 14.4 nM) | MIC (N. gonorrhoeae; clinical N. gonorrhoeae isolate 13, Sweden 2023): < 2 ng/mL | MIC (N. gonorrhoeae; clinical N. gonorrhoeae isolate 14, Sweden 2023): 4 ng/mL (≈ 7.21 nM) | MIC (N. gonorrhoeae; clinical N. gonorrhoeae isolate 15, Sweden 2023): 4 ng/mL (≈ 7.21 nM) | MIC (N. gonorrhoeae; clinical N. gonorrhoeae isolate 16, Sweden 2023): 32 ng/mL (≈ 57.7 nM) | MIC (N. gonorrhoeae; clinical N. gonorrhoeae isolate 17, Sweden 2023): 4 ng/mL (≈ 7.21 nM) | MIC (N. gonorrhoeae; clinical N. gonorrhoeae isolate 18, Sweden 2023): 4 ng/mL (≈ 7.21 nM) | MIC (N. gonorrhoeae; clinical N. gonorrhoeae isolate 19, Sweden 2023): 16 ng/mL (≈ 28.9 nM) | MIC (N. gonorrhoeae; clinical N. gonorrhoeae isolate 20, Sweden 2023): 2 ng/mL (≈ 3.61 nM) | MIC (N. gonorrhoeae; clinical N. gonorrhoeae isolate 21, Sweden 2023): 2 ng/mL (≈ 3.61 nM) | MIC (N. gonorrhoeae; clinical N. gonorrhoeae isolate 22, Sweden 2023): 2 ng/mL (≈ 3.61 nM) | MIC (N. gonorrhoeae; clinical N. gonorrhoeae isolate 23, Sweden 2023): < 2 ng/mL | MIC (N. gonorrhoeae; clinical N. gonorrhoeae isolate 24, Sweden 2023): 2 ng/mL (≈ 3.61 nM) | MIC (N. gonorrhoeae; clinical N. gonorrhoeae isolate 25, Sweden 2023): 4 ng/mL (≈ 7.21 nM) | MIC (N. gonorrhoeae; clinical N. gonorrhoeae isolate 26, Sweden 2023): 4 ng/mL (≈ 7.21 nM) | MIC (N. gonorrhoeae; clinical N. gonorrhoeae isolate 27, Sweden 2023): 4 ng/mL (≈ 7.21 nM) | MIC (N. gonorrhoeae; clinical N. gonorrhoeae isolate 28, Sweden 2023): 8 ng/mL (≈ 14.4 nM) | MIC (N. gonorrhoeae; clinical N. gonorrhoeae isolate 29, Sweden 2023): 4 ng/mL (≈ 7.21 nM) | MIC (N. gonorrhoeae; clinical N. gonorrhoeae isolate 30, Sweden 2023): < 2 ng/mL | MIC (N. gonorrhoeae; clinical N. gonorrhoeae isolate 31, Sweden 2023): 4 ng/mL (≈ 7.21 nM) | MIC (N. gonorrhoeae; clinical N. gonorrhoeae isolate 32, Sweden 2023): 2 ng/mL (≈ 3.61 nM) | MIC (N. gonorrhoeae; clinical N. gonorrhoeae isolate 33, Sweden 2023): 2 ng/mL (≈ 3.61 nM) | MIC (N. gonorrhoeae; clinical N. gonorrhoeae isolate 34, Sweden 2023): 4 ng/mL (≈ 7.21 nM) | MIC (N. gonorrhoeae; clinical N. gonorrhoeae isolate 35, Sweden 2023): 64 ng/mL (≈ 115 nM) | MIC (N. gonorrhoeae; clinical N. gonorrhoeae isolate 36, Sweden 2023): 8 ng/mL (≈ 14.4 nM) | MIC (N. gonorrhoeae; clinical N. gonorrhoeae isolate 37, Sweden 2023): 16 ng/mL (≈ 28.9 nM) | MIC (N. gonorrhoeae; clinical N. gonorrhoeae isolate 38, Sweden 2023): 4 ng/mL (≈ 7.21 nM) | MIC (N. gonorrhoeae; clinical N. gonorrhoeae isolate 39, Sweden 2023): 4 ng/mL (≈ 7.21 nM) | MIC (N. gonorrhoeae; clinical N. gonorrhoeae isolate 40, Sweden 2023): 8 ng/mL (≈ 14.4 nM) | MIC (N. gonorrhoeae; clinical N. gonorrhoeae isolate 41, Sweden 2023): 32 ng/mL (≈ 57.7 nM) | MIC (N. gonorrhoeae; clinical N. gonorrhoeae isolate 42, Sweden 2023): < 2 ng/mL | MIC (N. gonorrhoeae; clinical N. gonorrhoeae isolate 43, Sweden 2023): 4 ng/mL (≈ 7.21 nM) | MIC (N. gonorrhoeae; clinical N. gonorrhoeae isolate 44, Sweden 2023): 64 ng/mL (≈ 115 nM) | MIC (N. gonorrhoeae; clinical N. gonorrhoeae isolate 45, Sweden 2023): 2 ng/mL (≈ 3.61 nM) | MIC (N. gonorrhoeae; clinical N. gonorrhoeae isolate 46, Sweden 2023): 16 ng/mL (≈ 28.9 nM) | MIC (N. gonorrhoeae; clinical N. gonorrhoeae isolate 47, Sweden 2023): 8 ng/mL (≈ 14.4 nM) | MIC (N. gonorrhoeae; clinical N. gonorrhoeae isolate 48, Sweden 2023): 4 ng/mL (≈ 7.21 nM) | MIC (N. gonorrhoeae; clinical N. gonorrhoeae isolate 49, Sweden 2023): 4 ng/mL (≈ 7.21 nM) | MIC (N. gonorrhoeae; clinical N. gonorrhoeae isolate 50, Sweden 2023): 4 ng/mL (≈ 7.21 nM) | MIC (N. gonorrhoeae; clinical N. gonorrhoeae isolate 51, Sweden 2023): 2 ng/mL (≈ 3.61 nM) | MIC (N. gonorrhoeae; clinical N. gonorrhoeae isolate 52, Sweden 2023): 2 ng/mL (≈ 3.61 nM) | MIC (N. gonorrhoeae; clinical N. gonorrhoeae isolate 53, Sweden 2023): 2 ng/mL (≈ 3.61 nM) | MIC (N. gonorrhoeae; clinical N. gonorrhoeae isolate 54, Sweden 2023): 4 ng/mL (≈ 7.21 nM) | MIC (N. gonorrhoeae; clinical N. gonorrhoeae isolate 55, Sweden 2023): 4 ng/mL (≈ 7.21 nM) | MIC (N. gonorrhoeae; clinical N. gonorrhoeae isolate 56, Sweden 2023): 32 ng/mL (≈ 57.7 nM) | MIC (N. gonorrhoeae; clinical N. gonorrhoeae isolate 57, Sweden 2023): 16 ng/mL (≈ 28.9 nM) | MIC (N. gonorrhoeae; clinical N. gonorrhoeae isolate 58, Sweden 2023): 2 ng/mL (≈ 3.61 nM) | MIC (N. gonorrhoeae; clinical N. gonorrhoeae isolate 59, Sweden 2023): 16 ng/mL (≈ 28.9 nM) | MIC (N. gonorrhoeae; clinical N. gonorrhoeae isolate 60, Sweden 2023): 2 ng/mL (≈ 3.61 nM) | MIC (N. gonorrhoeae; clinical N. gonorrhoeae isolate 61, Sweden 2023): < 2 ng/mL | MIC (N. gonorrhoeae; clinical N. gonorrhoeae isolate 62, Sweden 2023): < 2 ng/mL | MIC (N. gonorrhoeae; clinical N. gonorrhoeae isolate 63, Sweden 2023): < 2 ng/mL | MIC (N. gonorrhoeae; clinical N. gonorrhoeae isolate 64, Sweden 2023): 16 ng/mL (≈ 28.9 nM) | MIC (N. gonorrhoeae; clinical N. gonorrhoeae isolate 65, Sweden 2023): < 2 ng/mL | MIC (N. gonorrhoeae; clinical N. gonorrhoeae isolate 66, Sweden 2023): 32 ng/mL (≈ 57.7 nM) | MIC (N. gonorrhoeae; clinical N. gonorrhoeae isolate 67, Sweden 2023): 16 ng/mL (≈ 28.9 nM) | MIC (N. gonorrhoeae; clinical N. gonorrhoeae isolate 68, Sweden 2023): 4 ng/mL (≈ 7.21 nM) | MIC (N. gonorrhoeae; clinical N. gonorrhoeae isolate 69, Sweden 2023): 4 ng/mL (≈ 7.21 nM) | MIC (N. gonorrhoeae; clinical N. gonorrhoeae isolate 70, Sweden 2023): < 2 ng/mL | MIC (N. gonorrhoeae; clinical N. gonorrhoeae isolate 71, Sweden 2023): 32 ng/mL (≈ 57.7 nM) | MIC (N. gonorrhoeae; clinical N. gonorrhoeae isolate 72, Sweden 2023): 32 ng/mL (≈ 57.7 nM) | MIC (N. gonorrhoeae; clinical N. gonorrhoeae isolate 73, Sweden 2023): 16 ng/mL (≈ 28.9 nM) | MIC (N. gonorrhoeae; clinical N. gonorrhoeae isolate 74, Sweden 2023): 32 ng/mL (≈ 57.7 nM) | MIC (N. gonorrhoeae; clinical N. gonorrhoeae isolate 75, Sweden 2023): 32 ng/mL (≈ 57.7 nM) | MIC (N. gonorrhoeae; clinical N. gonorrhoeae isolate 76, Sweden 2023): 4 ng/mL (≈ 7.21 nM) | MIC (N. gonorrhoeae; clinical N. gonorrhoeae isolate 77, Sweden 2023): 2 ng/mL (≈ 3.61 nM) | MIC (N. gonorrhoeae; clinical N. gonorrhoeae isolate 78, Sweden 2023): 16 ng/mL (≈ 28.9 nM) | MIC (N. gonorrhoeae; clinical N. gonorrhoeae isolate 79, Sweden 2023): < 2 ng/mL | MIC (N. gonorrhoeae; clinical N. gonorrhoeae isolate 80, Sweden 2023): 8 ng/mL (≈ 14.4 nM) | MIC (N. gonorrhoeae; clinical N. gonorrhoeae isolate 81, Sweden 2023): 4 ng/mL (≈ 7.21 nM) | MIC (N. gonorrhoeae; clinical N. gonorrhoeae isolate 82, Sweden 2023): 16 ng/mL (≈ 28.9 nM) | MIC (N. gonorrhoeae; clinical N. gonorrhoeae isolate 83, Sweden 2023): 4 ng/mL (≈ 7.21 nM) | MIC (N. gonorrhoeae; clinical N. gonorrhoeae isolate 84, Sweden 2023): 64 ng/mL (≈ 115 nM) | MIC (N. gonorrhoeae; clinical N. gonorrhoeae isolate 85, Sweden 2023): 4 ng/mL (≈ 7.21 nM) | MIC (N. gonorrhoeae; clinical N. gonorrhoeae isolate 86, Sweden 2023): 8 ng/mL (≈ 14.4 nM) | MIC (N. gonorrhoeae; clinical N. gonorrhoeae isolate 87, Sweden 2023): 2 ng/mL (≈ 3.61 nM) | MIC (N. gonorrhoeae; clinical N. gonorrhoeae isolate 88, Sweden 2023): 64 ng/mL (≈ 115 nM) | MIC (N. gonorrhoeae; clinical N. gonorrhoeae isolate 89, Sweden 2023): 4 ng/mL (≈ 7.21 nM) | MIC (N. gonorrhoeae; clinical N. gonorrhoeae isolate 90, Sweden 2023): 2 ng/mL (≈ 3.61 nM) | MIC (N. gonorrhoeae; clinical N. gonorrhoeae isolate 91, Sweden 2023): 4 ng/mL (≈ 7.21 nM) | MIC (N. gonorrhoeae; clinical N. gonorrhoeae isolate 92, Sweden 2023): 4 ng/mL (≈ 7.21 nM) | MIC (N. gonorrhoeae; clinical N. gonorrhoeae isolate 93, Sweden 2023): 4 ng/mL (≈ 7.21 nM) | MIC (N. gonorrhoeae; clinical N. gonorrhoeae isolate 94, Sweden 2023): 2 ng/mL (≈ 3.61 nM) | MIC (N. gonorrhoeae; clinical N. gonorrhoeae isolate 95, Sweden 2023): < 2 ng/mL | MIC (N. gonorrhoeae; clinical N. gonorrhoeae isolate 96, Sweden 2023): 2 ng/mL (≈ 3.61 nM) | MIC (N. gonorrhoeae; clinical N. gonorrhoeae isolate 97, Sweden 2023): < 2 ng/mL | MIC (N. gonorrhoeae; clinical N. gonorrhoeae isolate 98, Sweden 2023): 2 ng/mL (≈ 3.61 nM) | MIC (N. gonorrhoeae; clinical N. gonorrhoeae isolate 99, Sweden 2023): 4 ng/mL (≈ 7.21 nM) | MIC (N. gonorrhoeae; clinical N. gonorrhoeae isolate 100, Sweden 2023): 4 ng/mL (≈ 7.21 nM)
